Read-outs that look alike come from different tables or passages of the source.
What was measured:
A549 cells = assay: MTT cytotoxicity assay, A549; assay type: cell-based, human; settings: 72 h
Method: (§1) The cytotoxicity study of the prepared copper(II) complexes was performed using the MTT assay on human cell lines—A549 (adenocarcinoma human alveolar basal epithelial cell line), HepG2 (human liver cancer cell line) and HEL (human lung fibroblast cell line, normal cells).
(§2) The cytotoxicity of the prepared copper(II) complexes in human cell lines was evaluated using the 3-(4,5-dimethylthiazol-2-yl)-2,5-diphenyltetrazolium bromide (MTT) assay following the protocol by Mosmann. Briefly, A549 (human lung epithelial cells, carcinoma), HepG2 (human liver epithelial cells, carcinoma) and HEL (human lung fibroblast cells, normal) cells were seeded in plastic 96-well plates at a density of 1.5–2 × 10^4 cells per well. […] After the treatment, the samples were washed with phosphate-buffered saline (PBS), followed by 4 h of incubation with 1 mg/mL of MTT. Subsequently, the MTT solution was removed, and the formed formazane solids were dissolved in dimethyl sulfoxide for 30 min. The photometric evaluation (at 540 nm and 690 nm) was carried out using an xMark™ Microplate Absorbance Spectrophotometer (Bio-Rad, Hercules, CA, USA) [88].
(§3) A549 (ATCC® CCL-185), HepG2 (ATCC® HB-8065) and HEL299 (ATCC® CCL-137) cells were obtained from Lambda Life (Bratislava, Slovakia). A549 cells were kept in Dulbecco’s Modified Eagle’s Medium (DMEM) supplemented with 10% fetal bovine serum (FBS) and 1% antibiotics (penicillin and streptomycin). HepG2 cells were kept in Williams medium supplemented with 10% fetal bovine serum (FBS) and 1% antibiotics (penicillin and streptomycin). HEL299 cells were kept in Minimum Essential Medium (MEM) supplemented with 10% fetal bovine serum (FBS), 1% antibiotics (penicillin and streptomycin) and 1% non-essential amino acids (NEAA). The cells were cultured in a humidified atmosphere of 5% CO2 at 37 °C. Once the cells reached approximately 80% confluence, they were harvested and subcultured after trypsin treatment.

HepG2 cells = assay: MTT cytotoxicity assay, HepG2; assay type: cell-based, human; settings: 72 h
Method: as §1, §2, §3

[1] = tested on: HEL cells (human lung fibroblast, normal); assay: MTT cytotoxicity assay, HEL; assay type: cell-based; settings: 72 h
Method: as §1, §2, §3

[2] = SOD mimetic activity / radical scavenging assay (INT method); assay type: biochemical
Method: The radical scavenging ability with respect to the SOD mimetic activity of the prepared complexes was determined by the INT method. This method is based on a competitive reaction with the superoxide anion radical from KO2 between the measured compound (complex) and 2-(4-Iodophenyl)-3-(4-nitrophenyl)-5-phenyl-2H-tetrazolium chloride (INT). INT reacts with the single electron of O2^− and produces blue-green formazane detected as light absorption at 500 nm. Complexes with good antiradical activity also react with O2^−, and as a result of this, less formazane is formed.
The first type of antiradical activity measurements involved the determination of inhibition percent values of electron transfer on INT at specific concentrations (Table 9). Two concentrations were selected to achieve good solubility of the complexes (4 and 1 mM for 4a and 4c, 2 and 1 mM for 4b). The complex 4b dissolved readily at a concentration of 4 mM, but the mixture was very dark, making measurements at 500 nm difficult. Therefore, a less concentrated initial solution was used (2 mM) as the higher concentration. In total, 0.5 mL of the initial solutions was used to prepare sample solutions that also contained INT and KO2 solutions and DMSO with an overall volume of 3.5 mL. The resulting concentrations were c1 = 0.572 mM, c1* = 0.286 mM and c2 = 0.143 mM, respectively. Complexes 4a and 4c once again provided high percentages at c1 (approximately 96–99%) but the activity dropped below 24% at c2, while complex 4b maintained mediocre activity at both concentrations. It seems that the concentration increase had only a small effect on the activity of 4b; something similar was also observed in the DNA cleavage study for complex 4b. The complexes were compared with the model compound cystamine, which was used as a standard for superoxide antiradical scavenging due to the presence of a free […] group, which is also present in glutathione.
To improve the comparability of SOD mimetic activity, IC50 concentrations were determined by performing a series of measurements with decreasing concentration. IC50 values were calculated from the trend function equation as the concentration with 50% inhibition of electron transfer on INT (Table 10).
The method is based on the agent 2-(4-Iodophenyl)-3-(4-nitrophenyl)-5-phenyl-2H-tetrazolium chloride (INT), able to scavenge a superoxide radical anion from KO2. The reaction produces a blue-green formazane, which is detected as light absorption at 500 nm. The radical scavengers (measured complexes) compete with INT for radicals and reduce the formation of formazane and light absorption at 500 nm. Antiradical activity was measured on a Synergy HT BioTek spectrophotometer. DMSO was used as the solvent for the complex and KO2 (saturated solution). The INT initial solution (4 M) was prepared in a sodium tetraborate buffer solution with pH adjusted to 7.1 with HCl.
For each measurement, an initial solution of the sample (0.5 mL) of a specific concentration (4–0.1 mM) was prepared in DMSO. Due to the addition of INT (0.5 mL) and KO2 (0.5 mL) solutions and additional DMSO (2 mL), the concentrations of the measured complexes decreased seven times (3.5 mL of total mixture). Each result was the average value of three parallel measurements expressed with a standard deviation (more information in the Supplementary Materials). For the determination of SOD-IC50, several measurements with decreasing sample concentration were performed. […] A linear trend function of the percentage of inhibition and negative logarithm of concentration was used to calculate the SOD-IC50 value as the concentration with 50% inhibition of INT–formazane formation. […]
Green: 5c 5 mM (S. cerevisiae 1x10^9 cells /ml + 0.5 ml 0.9% NaCl + 0.5 ml 5c + 0.1 ml Resazurin OX) measured in time
S6. SOD Mimetic A ctivity A ssay
For each measurement, an initial solution of the sample of a specific concentration was prepared […]

SMILES | IC50 (A549 cells) [µM] | IC50 (HepG2 cells) [µM] | IC50 [1] [µM] | IC50 ([2]; 50% inhibition of electron transfer on INT, read-out: SOD-IC50) [µM] | IC50 ([2]; INT method, read-out: concentration of 50% inhibition (SOD-IC50), given as range) [µM] | Activity at c1 (%), inhibition of radical transfer to INT ([2]; c1 = 0.572 mM) [%] | Activity at c2 (%), inhibition of radical transfer to INT ([2]; c2 = 0.143 mM) [%]
N.N.[Cl][Pt][Cl] [cisplatin, reference compound] | 26.2 ± 4.1 | 16 ± 3.4 | 68.4 ± 0.3 |  |  |  | 
NCCSSCCN [cystamine, reference compound] |  |  |  | 1700 ± 100 | > 1000 | 22.1 ± 1.8 | 2.0 ± 0.0

From PMC12430429, “Synthesis, Structure, DNA/BSA Binding, DNA Cleaving, Cytotoxic and SOD Mimetic Activities of Copper(II) Complexes Derived from Methoxybenzylamine Schiff Base Ligands” (Molecules, 2025)
